{"source": "patent US4014883A", "about": "“Indoloquinolines, intermediates and processes” (Hoffmann-La Roche Inc., priority 1975, dated 1977)", "key": {"[1]": {"assay": "acute LD50 in mice", "conditions": "mouse, in vivo"}, "[2]": {"tested_on": "Sarcoma 180 (S-180)", "assay": "inhibition of growth of transplantable Sarcoma 180 (S-180) tumors, C/T ratio", "type": "in vivo", "conditions": "S-180 in mice, once daily for 8 days, ratio greater than 2 = active"}}}
{"molecule": "CN(C)CCn1c(=O)c2[nH]c3ccc(Cl)cc3c2c2ccccc21", "note": "[10-chloro-5-(2-dimethylaminoethyl)-7H-indolo[2,3-c]quinolin-6(5H)-one]", "values": [{"measurement": "LD50", "setting": "[1]; ip", "value": "> 2000", "unit": "mg/kg"}, {"measurement": "LD50", "setting": "[1]; po", "value": "> 4000", "unit": "mg/kg"}, {"measurement": "C/T ratio (average tumor weight of untreated controls / treated)", "setting": "[2]; 100 mg/kg i.p.", "value": 3.50}, {"measurement": "C/T ratio (average tumor weight of untreated controls / treated)", "setting": "[2]; 100 mg/kg orally", "value": 3.05}]}
